{"source": "paper PMC6973011", "about": "“Stafia‐1: a STAT5a‐Selective Inhibitor Developed via Docking‐Based Screening of in Silico O‐Phosphorylated Fragments” (Chemistry (Weinheim an Der Bergstrasse, Germany), 2019)", "key": {"STAT5b": {"target": "T1, STAT5b (Homo sapiens, UniProt P51692)", "T1 construct": "made in house", "T1 sequence (P51692 1-787)": "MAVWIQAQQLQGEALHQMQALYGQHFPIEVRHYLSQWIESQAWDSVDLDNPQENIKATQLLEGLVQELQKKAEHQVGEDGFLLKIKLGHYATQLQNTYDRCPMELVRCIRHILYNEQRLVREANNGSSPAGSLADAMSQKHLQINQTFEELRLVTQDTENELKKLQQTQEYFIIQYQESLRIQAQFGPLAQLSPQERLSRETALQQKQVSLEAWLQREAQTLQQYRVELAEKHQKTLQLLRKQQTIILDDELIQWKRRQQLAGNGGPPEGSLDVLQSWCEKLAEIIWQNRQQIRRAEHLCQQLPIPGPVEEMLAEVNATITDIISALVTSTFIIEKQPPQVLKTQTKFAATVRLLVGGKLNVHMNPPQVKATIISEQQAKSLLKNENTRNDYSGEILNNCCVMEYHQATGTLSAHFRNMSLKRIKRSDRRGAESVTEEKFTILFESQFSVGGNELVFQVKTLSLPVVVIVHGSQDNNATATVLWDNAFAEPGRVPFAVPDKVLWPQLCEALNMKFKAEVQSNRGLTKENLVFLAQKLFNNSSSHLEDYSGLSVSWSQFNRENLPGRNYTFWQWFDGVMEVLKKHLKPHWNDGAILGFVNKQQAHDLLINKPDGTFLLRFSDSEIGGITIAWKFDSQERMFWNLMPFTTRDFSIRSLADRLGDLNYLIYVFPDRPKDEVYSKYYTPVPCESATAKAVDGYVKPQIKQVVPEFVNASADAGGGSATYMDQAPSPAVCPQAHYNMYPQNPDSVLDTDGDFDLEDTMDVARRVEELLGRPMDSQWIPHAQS", "assay": "Fluorescence polarization competitive binding assay, STAT5b", "settings": "read-out: STAT5b inhibition at 200 μM"}, "[1]": {"target": "T2, STAT5b Arg566Trp/Met639Asn/Met644Lys (STAT5b‐3M) (Homo sapiens, UniProt P51692, M639N/M644K/R566W)", "T2 construct": "made in house", "T2 sequence (P51692 1-787 R566W/M639N/M644K)": "T1 sequence (P51692 1-787) with R566W, M639N, M644K", "assay": "Fluorescence polarization assay, triple mutant STAT5b-3M", "type": "binding"}, "[2]": {"target": "T3, STAT5b Arg566Trp/Met644Lys (Homo sapiens, UniProt P51692, M644K/R566W)", "T3 construct": "made in house", "T3 sequence (P51692 1-787 R566W/M644K)": "T1 sequence (P51692 1-787) with R566W, M644K", "assay": "Fluorescence polarization assay, double mutant STAT5b Arg566Trp/Met644Lys", "type": "binding", "settings": "FP assay"}}, "note": "Changes are numbered by the printed parent chain.", "data": [{"molecule": "COc1cc(-c2cc(OP(=O)(O)O)cc(-c3cc(OC)c(OC)c(OC)c3)c2)cc(OC)c1OC", "note": "[Compound 20]", "values": [{"measurement": "inhibition at 200 µM", "setting": "STAT5b", "result": "37 ± 5", "unit": "%"}, {"measurement": "IC50", "setting": "[1]; FP assay", "result": "101 ± 11", "unit": "µM"}, {"measurement": "Ki", "setting": "[1]; FP assay", "result": "49 ± 5.4", "unit": "µM"}, {"measurement": "activity gap between STAT5b-3M and STAT5b-7M", "setting": "[1]; FP assays", "result": 2.5, "unit": "fold"}, {"measurement": "IC50", "setting": "[2]", "result": "128 ± 8", "unit": "µM"}, {"measurement": "Ki", "setting": "[2]", "result": "63.1 ± 4.2", "unit": "µM"}]}]}
